Test system: Geobacillus stearothermophilus spores (ATCC 7953)
Assay: Fluorescence from enzyme substrates incubated with Geobacillus stearothermophilus spores in culture media
Format: cell-based
Details: 5×10^3 spores, substrate 0.1 mg/mL, 60° C.; for MEASURED FLUORESCENCE, RFU 10 sec: 360 nm excitation/450 nm emission
Protocol: Culture media was prepared by dissolving 5 g/L peptone C (BD 211921) and 12 g/L phytone peptone (BD BBL 211906) in deionized water. The pH was adjusted with 1 N NaOH or 0.1 N HCl, the media brought to volume, and then filter sterilized with a 0.22 micron PES filter. Stock solutions ([…]) of 8′-fluoro-4′-methylumbelliferyl-α-D-glucopyranoside, 6′-fluoro-4′-methylumbelliferyl-α-D-glucopyranoside, and 4-methylumbelliferyl-α-D-glucopyranoside were prepared in DMSO. The aforementioned substrates were added to culture media at a final concentration of 0.1 mg/ml and media were then 0.22 μm filter sterilized.
Culture media (pH 6) containing 8′-fluoro-4′-methylumbelliferyl-[…]-D-glucopyranoside (0.1 mg/mL) was added to two wells (100 microliters per well) of a black 96-well microtiter plate with (NUNC #165301, Thermo Fisher Scientific). A 5 microliter aqueous suspension containing 5×10^3 Geobacillus stearothermophilus spores (ATCC 7953) was added to each well of the microtiter plate. Next, the contents of each well were mixed using a multiple aspiration/delivery sequence with the pipet. […] The top of the plate was covered with an optically clear sealing film (product #4311971, Applied Biosystems Corporation, Foster City, California). The plate was warmed at 60° C. and shaken in a linear direction. Fluorescence readings (360 nm excitation/450 nm emission at 50% gain) were taken from the top of the plate. A reading was taken at an initial time point of 10 seconds and then at +1 minute intervals thereafter. A Synergy Neo2 fluorescence plate reader (BioTek Company, Winooski, Vermont) was used. In Table 1, the mean fluorescence values detected (RFU) at times of 10 seconds, +5 minutes, +10 minutes, and +30 minutes are reported. The mean fluorescence values detected for the control wells were 614 RFU at 10 seconds; 547 RFU at +5 minutes; 504 RFU at +10 minutes, and 438 RFU at +30 minutes.
Culture media (pH 7) containing 8′-fluoro-4′-methylumbelliferyl-[…]-D-glucopyranoside (0.1 mg/mL) was added to two wells (100 microliters per well) of a black 96-well microtiter plate with (NUNC #165301, Thermo Fisher Scientific). A 5 microliter aqueous suspension containing 5×10^3 Geobacillus stearothermophilus spores (ATCC 7953) was added to each well of the microtiter plate. Next, the contents of each well were mixed using a multiple aspiration/delivery sequence with the pipet. […] The top of the plate was covered with an optically clear sealing film (product #4311971, Applied Biosystems Corporation). The plate was warmed at 60° C. and shaken in a linear direction. Fluorescence readings (360 nm excitation/450 nm emission at 50% gain) were taken from the top of the plate. A reading was taken at an initial time point of 10 seconds and then at +1 minute intervals thereafter. A Synergy Neo2 fluorescence plate reader (BioTek Company) was used. In Table 2, the mean fluorescence values detected (RFU) at times of 10 seconds, +5 minutes, +10 minutes, and +30 minutes are reported. The mean fluorescence values detected for the control wells were 601 RFU at 10 seconds; 533 RFU at +5 minutes; 495 RFU at +10 minutes, and 430 RFU at +30 minutes.
Culture media (pH 8) containing 8′-fluoro-4′-methylumbelliferyl-[…]-D-glucopyranoside (0.1 mg/mL) was added to two wells (100 microliters per well) of a black 96-well microtiter plate with (NUNC #165301, Thermo Fisher Scientific). A 5 microliter aqueous suspension containing 5×10^3 Geobacillus stearothermophilus spores (ATCC 7953) was added to each well of the microtiter plate. Next, the contents of each well were mixed using a multiple aspiration/delivery sequence with the pipet. […] The top of the plate was covered with an optically clear sealing film (product #4311971, Applied Biosystems Corporation). The plate was warmed at 60° C. and shaken in a linear direction. Fluorescence readings (360 nm excitation/450 nm emission at 50% gain) were taken from the top of the plate. […]

SMILES | MEASURED FLUORESCENCE, RFU 10 sec (pH 6 culture media) [RFU] | MEASURED FLUORESCENCE, RFU +10 min (pH 6 culture media) [RFU] | MEASURED FLUORESCENCE, RFU +5 min (pH 7 culture media) [RFU] | MEASURED FLUORESCENCE, RFU +10 min (pH 7 culture media) [RFU] | MEASURED FLUORESCENCE, RFU +30 min (pH 7 culture media) [RFU] | MEASURED FLUORESCENCE, RFU +30 min (pH 8 culture media) [RFU]
Cc1cc(=O)oc2c(F)c(O[C@H]3O[C@H](CO)[C@@H](O)[C@H](O)[C@H]3O)ccc12 [Example 1, 8′-Fluoro-4′-methylumbelliferyl […]-D-glucopyranoside] | 806 | 1909 | 1474 | 2681 | 10190 | 7477
Cc1cc(=O)oc2cc(O[C@H]3O[C@H](CO)[C@@H](O)[C@H](O)[C@H]3O)ccc12 [MUG, 4′-methylumbelliferyl-α-D-glucopyranoside] | 646 | 588 | 634 | 655 | 1219 | 1725
Cc1cc(=O)oc2cc(O[C@H]3O[C@H](CO)[C@@H](O)[C@H](O)[C@H]3O)c(F)cc12 [Example 6F-MUG, 6′-Fluoro-4′-methylumbelliferyl […]-D-glucopyranoside] | 886 | 1903 | 1130 | 1855 | 8708 | 5638

Source: patent US12486301B2, “8-fluoro-4-alkylumbelliferyl α-D-glucopyranoside, biological sterilization indicator including the same and its use in a method of determining efficacy of a sterilization process” (Solventum Intellectual Properties Company, priority 2019, dated 2025)
